US20130324405A1, “NEW ANTIFUNGAL COMPOSITIONS” (DSM IP ASSETS B.V., priority 2011, published 2013)
Several values for one entry are separate records, joined by “and”; a condition that tells them apart may be missing. Equal entries are not always repeated.

Columns and labels:
[1] = system: Fusarium proliferatum; assay: Treatment of wounded, inoculated bananas with antifungal compositions (mould growth); format: in vivo
Protocol: Four organic, unripe (green) bananas were used per treatment. The peel of each banana was wounded thrice using a cork borer according to the method described by de Lapeyre de Bellaire and Dubois (1987). Subsequently, each wound was inoculated with 15 μl of a Fusarium proliferatum suspension containing 1×10^5 of spores/ml. […] In addition, the antifungal compositions comprised 1.00% (w/w) methylhydroxyethylcellulose (MHEC), 0.40% (w/w) xanthan gum, 0.20% (w/w) anti-foaming agent, 0.30% (w/w) citric acid, 0.39% (w/w) lactic acid and 0.11% (w/w) potassium sorbate. The pH of the composition was 4.
The treated, unripe bananas were incubated in a closed box in the dark at 20° C. and a relative air humidity of 95%, which was obtained in the presence of a saturated Na2HPO4 aqueous solution. A ripe (yellow) banana was included in the closed box to elevate the ethylene gas level and thus induce ripening of the treated, unripe bananas.
The expected antifungal activity (E in %) of the combined antifungal composition comprising both active ingredients was calculated according to the Colby equation (Colby, 1967): […]
(§1) wherein X and Y are the observed antifungal activities (in %) of the individual active ingredients X and Y, respectively. If the observed antifungal activity (O in %) of the combination exceeds the expected antifungal activity (E in %) of the combination and the synergy factor O/E is thus >1.0, the combined application of the active ingredients leads to a synergistic antifungal effect.

[2] = system: Botrytis cinerea; assay: Treatment of wounded, inoculated strawberries by dipping in antifungal compositions (mould growth); format: in vivo; settings: for Observed antifungal activity O (%): strawberries
Protocol: Twelve fresh, organic strawberries were used per treatment. Each strawberry was wounded with a 0.5 mm long cut and each wound was inoculated with 10 μl of a Botrytis cinerea suspension containing 1×10^5 of spores/ml. […] The antifungal composition also comprised 1.00% (w/w) methylhydroxyethylcellulose (MHEC), 0.40% (w/w) xanthan gum, 0.20% (w/w) anti-foaming agent, 0.30% (w/w) citric acid, 0.39% (w/w) lactic acid and 0.11% (w/w) potassium sorbate. The pH of the composition was 4.
The treated strawberries were incubated in a closed box in the dark at 20° C. […]. […] The expected antifungal activity (E in %) of the combined antifungal composition comprising both active ingredients was calculated according to the Colby equation (Colby, 1967): […]
as §1
The treated strawberries were assessed on mould growth after 3, 4, 5, 7, 8 and 9 days of incubation according to the two methods described in Example 6.

[3] = system: Botrytis cinerea; assay: In vitro antifungal activity, 96-well microtiter plates; format: cell-based; settings: 0.63 ppm natamycin, 25 ppm cyazofamid, 50 ppm fenamidone, or natamycin plus one of these, 7 days at 25° C.
Protocol: Subsequently, 100 μl of a Botrytis cinerea suspension prepared in PCB medium was used to inoculated each well with 2.5×10^3spores/ml. […] The expected antifungal activity (E in %) of the active ingredient combination was calculated according to the Colby equation (Colby, 1967): […] wherein X and Y are the observed antifungal activities (in %) of the individual active ingredients X and Y, respectively.

[4] = system: Fusarium proliferatum; assay: as above; format: cell-based; settings: 5 days at 25° C.
Protocol: Subsequently, 100 μl of a Botrytis cinerea suspension prepared in PCB medium was used to inoculated each well with 2.5×10^3spores/ml.
After incubation of the microtiter plates for 7 at 25° C., the in vitro antifungal activity (%) of the individual active ingredients was assessed by calculating the reduction in mould growth observed in the presence of the active ingredient in comparison to the mould growth observed in the absence of the active ingredient. The expected antifungal activity (E in %) of the active ingredient combination was calculated according to the Colby equation (Colby, 1967): […]
wherein X and Y are the observed antifungal activities (in %) of the individual active ingredients X and Y, respectively. If the observed antifungal activity (O in %) of the combination exceeds the expected antifungal activity (E in %) of the combination and the resulting synergy factor O/E is thus >1.0, the combined application of the active ingredients leads to a synergistic antifungal effect.
Furthermore, Fusarium proliferatum was used for inoculation.

[5] = 250 ppm natamycin, 500 ppm cyazofamid or both, 27 days at 20° C.
[6] = 500 ppm natamycin, 2000 ppm cyazofamid or both, 21 days at 20° C.
[7] = 500 ppm natamycin, 2000 ppm cyazofamid or both, 23 days at 20° C.
[8] = 500 ppm natamycin, 2000 ppm cyazofamid or both, 24 days at 20° C.
[9] = 50 ppm natamycin, 250 ppm fenamidone or both, Day 3 at 20° C.
[10] = 50 ppm natamycin, 250 ppm fenamidone or both, Day 4 at 20° C.
[11] = 50 ppm natamycin, 250 ppm fenamidone or both, Day 5 at 20° C.
[12] = 500 ppm natamycin, 1000 ppm fenamidone or both, Day 3 at 20° C.
[13] = 500 ppm natamycin, 1000 ppm fenamidone or both, Day 5 at 20° C.
[14] = 50 ppm natamycin, 250 ppm fenamidone or both, 3 days at 20° C.
[15] = 50 ppm natamycin, 250 ppm fenamidone or both, 4 days at 20° C.
[16] = 50 ppm natamycin, 250 ppm fenamidone or both, 5 days at 20° C.
[17] = 50 ppm natamycin, 250 ppm fenamidone or both, 7 days at 20° C.
[18] = 50 ppm natamycin, 250 ppm fenamidone or both, 8 days at 20° C.
[19] = 50 ppm natamycin, 250 ppm fenamidone or both, 9 days at 20° C.
[20] = 500 ppm natamycin, 1000 ppm fenamidone or both, 3 days at 20° C.
[21] = 500 ppm natamycin, 1000 ppm fenamidone or both, 4 days at 20° C.
[22] = 500 ppm natamycin, 1000 ppm fenamidone or both, 5 days at 20° C.
[23] = 500 ppm natamycin, 1000 ppm fenamidone or both, 7 days at 20° C.
[24] = 500 ppm natamycin, 1000 ppm fenamidone or both, 8 days at 20° C.
[25] = 500 ppm natamycin, 1000 ppm fenamidone or both, 9 days at 20° C.
[26] = 2.5 ppm natamycin, 50 ppm cyazofamid or both

Compound	Observed antifungal activity O (%) [1, 5] [%]	Observed antifungal activity O (%) [1, 6] [%]	Observed antifungal activity O (%) [1, 7] [%]	Observed antifungal activity O (%) [1, 8] [%]	Number of moulded strawberries/total number of 12 strawberries [2, 9]	Number of moulded strawberries/total number of 12 strawberries [2, 10]	Number of moulded strawberries/total number of 12 strawberries [2, 11]	Number of moulded strawberries/total number of 12 strawberries [2, 12]	Number of moulded strawberries/total number of 12 strawberries [2, 13]	Observed antifungal activity O (%) [2, 14] [%]	Observed antifungal activity O (%) [2, 15] [%]	Observed antifungal activity O (%) [2, 16] [%]	Observed antifungal activity O (%) [2, 17] [%]	Observed antifungal activity O (%) [2, 18] [%]	Observed antifungal activity O (%) [2, 19] [%]	Observed antifungal activity O (%) [2, 20] [%]	Observed antifungal activity O (%) [2, 21] [%]	Observed antifungal activity O (%) [2, 22] [%]	Observed antifungal activity O (%) [2, 23] [%]	Observed antifungal activity O (%) [3] [%]	other results
C[C@@H]1C/C=C/C=C/C=C/C=C/[C@H](O[C@@H]2O[C@H](C)[C@@H](O)[C@H](N)[C@@H]2O)C[C@@H]2O[C@](O)(C[C@@H](O)C[C@H]3O[C@@H]3/C=C/C(=O)O1)C[C@H](O)[C@H]2C(=O)O [Natamycin, natamycin]	4	94	86	84	3 and 3/12	5 and 5/12	10 and 10/12	3 and 3/12	11 and 11/12	64	50	17	17	10	0	75	69	31	13	0	Observed antifungal activity O (%) [2, 24]: 0%; Observed antifungal activity O (%) [2, 25]: 0%; Observed antifungal activity O (%) [4, 26]: 0%
CSC1=N[C@@](C)(c2ccccc2)C(=O)N1Nc1ccccc1 [Fenamidone, fenamidone]					12 and 12/12	12 and 12/12	12 and 12/12	12 and 12/12	12 and 12/12	0	0	0	0	0	0	9	0	0	0	0	Observed antifungal activity O (%) [2, 24]: 0%; Observed antifungal activity O (%) [2, 25]: 0%
Cc1ccc(-c2c(Cl)nc(C#N)n2S(=O)(=O)N(C)C)cc1 [Cyazofamid, cyazofamid]	1	0	0	0																0	Observed antifungal activity O (%) ([1]; 50 ppm natamycin, 250 ppm cyazofamid or both, 27 days at 20° C.): 0%; Observed antifungal activity O (%) [4, 26]: 0%; Observed antifungal activity O (%) ([4]; 75 ppm cyazofamid alone or with 2.5 ppm natamycin): 0%
